SMILES strings stand for the structures.

Data on one compound can be found in US12648925B2, “Composition for preventing or treating cancer, containing manassantin A and immune checkpoint inhibitor or epithelial growth factor receptor inhibitor” (KYUNGPOOK NATIONAL UNIVERSITY INDUSTRY-ACADEMIC COOPERATION …, priority 2019, dated 2026).

The test system of this assay is Lewis lung carcinoma (LLC). Nature of the assay: Hypoxic state (hypoxyprobe-1/PIMO) and CD31 microvessel density by immunohistochemistry in LLC allograft tumor. Type of assay: in vivo, C57BL/6J mouse. Conditions: 2 mg/kg intraperitoneal on day 2, 4, 6, 8, 10; tumor extracted day 17; vs PBS control; FIG. 1.

Description: As a control, the same amount of phosphate buffered saline (PBS) was injected. In addition, to measure a hypoxic state inside the tumor on day 17, 60 mg/kg of hypoxyprobe-1™ (pimonidazole hydrochloride; PIMO, HPI) was administered by intraperitoneal injection, and after 90 minutes, the mouse was sacrificed to extract the tumor. In addition, immunohistochemistry (HC) analyses were performed using the obtained tumor tissue. More particularly, the obtained tumor was fixed with 3.7% paraformaldehyde (PFA) and then dehydrated by treatment with a 10 to 40% sucrose solution step by step. In addition, after increasing the osmotic permeability of cells by treatment with 0.3% Triton X-100 and blocking with 5% bovine serum albumin (BSA), a rat anti-CD31 (BD Biosciences) or Alexa Fluor 647-conjugated anti-HIF-1 alpha antibody (Abcam) was treated and reacted at 4° C. for 16 hours. The mouse treated with the HIF-1 alpha antibody was a mouse which was not treated with hypoxyprobe-1™. […] In addition, finally, a cell nucleus was stained with DAPI (Sigma-Aldrich) and observed using a confocal microscope, followed by quantifying a fluorescent value using ImageJ. […]

Take `COc1ccc([C@@H](O)[C@@H](C)Oc2ccc([C@H]3O[C@H](c4ccc(O[C@H](C)[C@H](O)c5ccc(OC)c(OC)c5)c(OC)c4)[C@H](C)[C@H]3C)cc2OC)cc1OC` [manassantin A]: the “hypoxic state inside the tumor” value is listed as “significantly reduced” and the “microvessel density (MVD) of CD31-positive vascular endothelial cells” value was “significantly reduced”.
